Results reported in ChEMBL document CHEMBL1133360, “Design, synthesis, and biological activity of a cyclic peptide: an inhibitor of HIV-1 tat-TAR interactions in human cells” (Bioorg Med Chem Lett, 2000).
Where a SMILES comes first, the peptide text is derived from it. [ ]: non-standard residue; d: D form.

Assays:
[1] = Inhibitory activity of compound was tested against transcriptional activation by Tat protein in human cells; type: functional, cell-based
Homo sapiens = species on record: Homo sapiens; experiment: Percent of Tat-activation inhibited at 500 uM of the compound; type: functional

Row | IC50 [1] [nM] | SMILES | inhibition (Homo sapiens) [%]
1 | ~50 | NCCCC[C@H](N)C(=O)N[C@H](CCCCN)C(=O)N[C@@H](CC(N)=O)C(=O)O (H-Lys-[dK]-Asn-OH) | –
2 | ~40 | NCCCC[C@@H]1NC(=O)[C@@H](N)CCCCNC(=O)CC[C@@H](C(=O)O)NC(=O)[C@H](CC(N)=O)NC(=O)[C@@H](CCCCN)NC1=O | > 90
